Source: publication PMC10002984, “Dual PTP1B/TC-PTP Inhibitors: Biological Evaluation of 3-(Hydroxymethyl)cinnoline-4(1H)-Ones” (International Journal of Molecular Sciences, 2023)

Experiments:
[1] = test system: male rats with HFD-induced obesity; assay: Body weight and food intake in obese rats, five-day treatment; assay type: in vivo, male Wistar rats; settings: five-day treatment i.p., 3 8 mg/kg/day, 4 10 mg/kg/day; for reduction of body weight in obese rats: p < 0.05 vs untreated obese animals; for reduction of the consumption of dry standard food: obese rats
Experimental: The male Wistar rats (at the start of the experiment the age of the animals was 2-months, and at the end of the experiment their age was 6-months) were obtained from the Rappolovo animal facility (Russia). The animals were housed in plastic cages, five animals in each, with a normal light–dark cycle (12 h/12 h), a temperature of 22 ± 3 °C, and free access to food and water. All experiments were approved by the Institutional Animal Care and Use Committee at the Sechenov Institute of Evolutionary Physiology and Biochemistry (St. Petersburg, Russia) (protocol No 02/02-2020, 19 February 2020) and according to The Guide for the Care and Use of Laboratory Animals and the European Communities Council Directive of 1986 (86/609/EEC). All efforts were made to minimize animal suffering and reduce the number of experimental animals.
(§1) The obesity model was induced at 16-weeks (starting at two months of age) using a high-fat diet. Control animals received standard laboratory chow pellets. The high-fat diet included supplements of 5–7 g of a fat mixture containing 52.4% pork lard, 41.7% curd, 5% liver, 0.5% L-methionine, 0.2% baker’s yeast, and 0.2% sodium chloride. After 16-weeks on a high-fat diet, the animals with increased body weight, glucose intolerance, and hyperinsulinemia, and hyperleptinemia were selected for further experiments. The glucose intolerance was estimated according to the results of the glucose tolerance test (GTT). In the GTT, 120 min after glucose loading, the blood glucose levels in obese rats were above 7 mM, and the AUC0-120 values for the curve “glucose concentration (mM)–time (minutes)” were above 30%, as compared to the average AUC0-120 values in the control group.
Further, six groups were formed: control (Con, n = 10), obesity (Ob, n = 10), obese rats with five-day treatment with compounds 1 (Ob + 1, n = 5), 2 (Ob + 2, n = 5), 3 (Ob + 3, n = 10), and 4 (Ob + 4, n = 10). All compounds were administered in DMSO (300 µL) at a daily dose of 7 mg/kg (1 and 2), 8 mg/kg (3), and 10 mg/kg (4) (i.p.), based on the results of the preliminary experiments. The used doses of compounds 1–4, in terms of the number of moles of each compound per kg of animal body weight, were equivalent. Control and obese rats received DMSO in the same volumes (300 µL), instead of the tested compounds. During the five days of the experiment, all animals were transferred to standard food and had free access to food and drinking water. […] The test was carried out on the morning of the next day after the last (fifth) injection of the compounds or DMSO, after a 10 h fast. The rest of the animals (n = 5 in each group) were anesthetized and decapitated on the last day of the experiment. […]

[2] = test system: male rats with HFD-induced obesity; assay: Glucose tolerance test in obese rats after five-day treatment; assay type: in vivo, male Wistar rats; settings: 4 10 mg/kg/day; for reduction of AUC0-120 of the glucose concentration curve vs untreated animals: GTT after five-day treatment, p < 0.05 vs Ob group; for reduction of AUC0-120 of the glucose concentration curve vs untreated animals / reduction of glucose level 120 min after glucose load vs untreated obese animals: 3 8 mg/kg/day; for reduction of glucose level 120 min after glucose load vs untreated obese animals: GTT glucose 2 g/kg i.p. after five-day treatment
Text: as §1
Further, six groups were formed: control (Con, n = 10), obesity (Ob, n = 10), obese rats with five-day treatment with compounds 1 (Ob + 1, n = 5), 2 (Ob + 2, n = 5), 3 (Ob + 3, n = 10), and 4 (Ob + 4, n = 10). All compounds were administered in DMSO (300 µL) at a daily dose of 7 mg/kg (1 and 2), 8 mg/kg (3), and 10 mg/kg (4) (i.p.), based on the results of the preliminary experiments. The used doses of compounds 1–4, in terms of the number of moles of each compound per kg of animal body weight, were equivalent. Control and obese rats received DMSO in the same volumes (300 µL), instead of the tested compounds. During the five days of the experiment, all animals were transferred to standard food and had free access to food and drinking water. […] The test was carried out on the morning of the next day after the last (fifth) injection of the compounds or DMSO, after a 10 h fast. The rest of the animals (n = 5 in each group) were anesthetized and decapitated on the last day of the experiment. The blood and liver samples were taken to measure blood glucose and hormone levels and gene expression in the liver.
The glucose levels in the blood obtained from the tail vein were measured using a glucometer (Life Scan Johnson & Johnson, Denmark) and the test strips “One Touch Ultra” (USA). The levels of insulin and leptin in rat serum were estimated with the “Rat Insulin ELISA” (Mercodia AB, Uppsala, Sweden) and “ELISA for Leptin, Rat” (Cloud-Clone Corporation, Houston, TX, USA) kits. The GTT was carried out using a single injection of glucose (2 g/kg, i.p.) after 10 h of fasting, as described earlier. The blood glucose levels were measured before (0 min) and 15, 30, 60, and 120 min after the glucose load.

[3] = test system: PTP1B gene; assay: Gene expression in the liver of obese rats (qPCR), PTP1B gene; assay type: in vivo, rat; settings: five-day treatment, vs Ob group
Experimental: Further, six groups were formed: control (Con, n = 10), obesity (Ob, n = 10), obese rats with five-day treatment with compounds 1 (Ob + 1, n = 5), 2 (Ob + 2, n = 5), 3 (Ob + 3, n = 10), and 4 (Ob + 4, n = 10). All compounds were administered in DMSO (300 µL) at a daily dose of 7 mg/kg (1 and 2), 8 mg/kg (3), and 10 mg/kg (4) (i.p.), based on the results of the preliminary experiments. The used doses of compounds 1–4, in terms of the number of moles of each compound per kg of animal body weight, were equivalent. Control and obese rats received DMSO in the same volumes (300 µL), instead of the tested compounds. During the five days of the experiment, all animals were transferred to standard food and had free access to food and drinking water. […]
The total RNA was isolated from the liver samples of rats using the “ExtractRNA Reagent” (Evrogen, Moscow, Russia), and the samples containing 1 μg of RNA were transcribed to cDNA using the random oligodeoxynucleotide primers and the “MMLV RT kit” (Evrogen, Russia). […] The amplified signals were detected using the “Applied Biosystems® 7500 Real-Time PCR System” (Life Technologies, Carlsbad, CA, USA, Thermo Fisher Scientific Inc., USA). […] The obtained data were calculated with the delta–delta Ct method and expressed as a fold expression, relative to the corresponding control. […]

## O=c1c(CO)n[nH]c2ccc(Br)cc12 [Compound 4, 6-Bromo-3-(hydroxymethyl)cinnolin-4(1H)-one]
[1]
  reduction of body weight in obese rats: 22.6 ± 4.0 g
  reduction of the consumption of dry standard food: 39%
[2]
  reduction of AUC0-120 of the glucose concentration curve vs untreated animals: 20%
  reduction of glucose level 120 min after glucose load vs untreated obese animals: 17%
[2]; obese rats, five-day treatment
  glucose sensitivity in the glucose tolerance test: improved
[3]
  expression of the PTP1B gene in the liver: significant difference to the Ob group

## O=c1c(CO)n[nH]c2ccc(Cl)cc12 [Compound 3, 6-Chloro-3-(hydroxymethyl)cinnolin-4(1H)-one]
[1]
  reduction of body weight in obese rats: 22.2 ± 4.5 g
  reduction of the consumption of dry standard food: 46%
[2]
  reduction of AUC0-120 of the glucose concentration curve vs untreated animals: 24%
  reduction of glucose level 120 min after glucose load vs untreated obese animals: 20%
[3]
  expression of the PTP1B gene in the liver: significant difference to the Ob group
